Test results reported in ChEMBL document CHEMBL1143942, “Deoxygenated phosphorothioate inositol phosphate analogs: synthesis, phosphatase stability, and binding affinity” (Bioorg Med Chem, 2008).
Calls of active or inactive are those of the source. The calls are words filed in the database; no cut-off is given here.

Columns and labels:
[1] = Inhibition of alkaline phosphatase
[2] = Displacement of [3H]Ins(1,4,5)P3 from Ins(1,4,5)P3 receptor in bovine adrenal cortex; type: tissue-based, Bos taurus
[3] = Chemical stability in presence of alkaline phosphatase; type: physicochemical

| Kd [3] [nM] | Structure (SMILES) | Activity [1] | Kd [2] [nM] | Stability ([3]; isolated protein) |
| --- | --- | --- | --- | --- |
|  | O[C@@H]1[C@@H](OP(O)(O)=S)[C@H](OP(O)(O)=S)CC[C@H]1OP(O)(O)=S | inactive | 810 | Stable |
| 54 | O=P(O)(O)O[C@@H]1[C@H](O)[C@H](O)[C@@H](OP(=O)(O)O)[C@H](OP(=O)(O)O)[C@H]1O [INS(1,4,5)P3] |  |  |  |
